Results as given in patent US9084424B2, “N-benzyl heterocyclic carboxamides” (BAYER INTELLECTUAL PROPERTY GMBH, priority 2010, dated 2015).

Columns and labels:
[1] = system: Sphaerotheca fuliginea; test: In vivo preventive test on Sphaerotheca fuliginea (cucumber); conditions: preventive spray, 500 ppm of active ingredient, evaluated 7 days after inoculation
Protocol: In Vivo Preventive Test on Sphaerotheca fuliginea (Cucumber)
(§1) Solvent: 49 parts by weight of N,N-dimethylformamide
(§2) Emulsifier: 1 part by weight of alkylarylpolyglycolether
(§3) To produce a suitable preparation of active compound, 1 part by weight of active compound is mixed with the stated amounts of solvent and emulsifier, and the concentrate is diluted with water to the desired concentration.
To test for preventive activity, young plants are sprayed with the preparation of active compound at the stated rate of application. After the spray coating has dried on, the plants are inoculated with an aqueous spore suspension of Sphaerotheca fuliginea. The plants are then placed in a greenhouse at approximately 23° C. and a relative atmospheric humidity of approximately 70%.
The test is evaluated 7 days after the inoculation. 0% means an efficacy which corresponds to that of the untreated control, while an efficacy of 100% means that no disease is observed.

[2] = log P by HPLC on reversed-phase column (EEC Directive 79/831 Annex V.A8); assay type: physicochemical; conditions: 0.1% aqueous formic acid and acetonitrile, linear gradient 10% to 90% acetonitrile
Protocol: In table 1, the log P values were determined in accordance with EEC Directive 79/831 Annex V.A8 by HPLC (High Performance Liquid Chromatography) on a reversed-phase column (C 18), using the method described below: Temperature: 40° C.; Mobile phases: 0.1% aqueous formic acid and acetonitrile; linear gradient from 10% acetonitrile to 90% acetonitrile. Calibration was carried out using unbranched alkan-2-ones (comprising 3 to 16 carbon atoms) with known log P values (determination of the log P values by the retention times using linear interpolation between two successive alkanones). lambda-max-values were determined using UV-spectra from 200 nm to 400 nm and the peak values of the chromatographic signals.

[3] = system: Alternaria solani; test: In vivo preventive test on Alternaria solani (tomato); conditions: preventive spray, 500 ppm of active ingredient, evaluated 7 days after inoculation
Protocol: In Vivo Preventive Test on Alternaria Solani (Tomato)
as §1, §2, §3
To test for preventive activity, young plants are sprayed with the preparation of active compound at the stated rate of application. One day after this treatment, the plants are inoculated with an aqueous spore suspension of Alternaria solani. The plants remain for one day in an incubation cabinet at approximately 22° C. and a relative atmospheric humidity of 100%. Then the plants are placed in an incubation cabinet at approximately 20° C. and a relative atmospheric humidity of 96%.
The test is evaluated 7 days after the inoculation. 0% means an efficacy which corresponds to that of the untreated control while an efficacy of 100% means that no disease is observed.

[4] = system: Pyrenophora teres; test: In vivo preventive test on Pyrenophora teres (barley); conditions: preventive spray, 500 ppm of active ingredient, evaluated 7-9 days after inoculation
Protocol: In Vivo Preventive Test on Pyrenophora teres (Barley)
Solvent: 49 parts by weight of N,N-dimethylacetamid
(§4) Emulsifier: 1 part by weight of alkylaryl polyglycol ether
as §3
(§5) To test for preventive activity, young plants are sprayed with the preparation of active compound at the stated rate of application. One day after this treatment, the plants are inoculated with an aqueous spore suspension of Pyrenophora teres. The plants remain for 48 hours in an incubation cabinet at 22° C. and a relative atmospheric humidity of 100%. Then the plants are placed in a greenhouse at a temperature of approximately 20° C. and a relative atmospheric humidity of approximately 80%.
The test is evaluated 7-9 days after the inoculation. 0% means an efficacy which corresponds to that of the untreated control while an efficacy of 100% means that no disease is observed.

[5] = system: Leptosphaeria nodorum; test: In vivo preventive test on Leptosphaeria nodorum (wheat); conditions: preventive spray, 500 ppm of active ingredient, evaluated 7-9 days after inoculation
Protocol: In Vivo Preventive Test on Leptosphaeria nodorum (Wheat)
Solvent: 49 parts by weight of N,N-dimethylacetamide
as §4, §3
as §5, with “with a” for “with the”, “of Leptosphaeria nodorum.” for “of Pyrenophora teres.”, “approximately 22°” for “approximately 20°”, “approximately 90%.” for “approximately 80%.”
The test is evaluated 7-9 days after the inoculation. 0% means an efficacy which corresponds to that of the untreated control, while an efficacy of 100% means that no disease is observed.
Under these conditions, good (at least 70%) to excellent protection (at least 95%) is observed at a dose of 500 ppm of active ingredient with the following compounds from table D: […]

[6] = HPLC, reversed-phase C 18, 40° C.
[7] = HPLC on reversed-phase column (C 18), 40° C.

Compound | logP [2, 6] | logP [2, 7] | Efficacy [1] | Efficacy [3] | Efficacy [4] | Efficacy [5]
CC(NC(=O)c1c(C(F)F)nn(C)c1F)c1ccccc1Cl (racemic) [Example 24] | 2.75 | – | 89% | 94% | 100% | –
CC(NC(=O)c1c(C(F)F)nn(C)c1F)c1ccc(OCc2ccccc2)cc1 (racemic) [Example 162] | – | 3.41 | 88% | 100% | 100% | –
CC(NC(=O)c1c(C(F)F)nn(C)c1F)c1ncc(C(F)(F)F)cc1Cl (racemic) [Example 175] | – | 3.19 | 95% | 95% | 100% | –
CC(NC(=O)c1c(C(F)F)nn(C)c1Cl)c1ncc(C(F)(F)F)cc1Cl (racemic) [Example 177] | – | 3.48 | 93% | 90% | 100% | –
CC(NC(=O)c1c(C(F)F)nn(C)c1Cl)c1ccc(Cl)cc1Cl (stereo not shown) [Example 33] | 4.39 | – | 96% | 95% | 100% | –
Cn1nc(C(F)F)c(C(=O)NC2(c3ccc(Cl)cc3Cl)CC2)c1F [Example 38] | 3.89 | – | 89% | 94% | 95% | –
Cn1nc(C(F)F)c(C(=O)NC(c2ccc(Cl)cc2Cl)C(F)(F)F)c1F (stereo not shown) [Example 40] | 4.19 | – | 83% | 94% | 95% | –
CC(NC(=O)c1c(C(F)F)nn(C)c1Cl)c1cc(Cl)ccc1Cl (stereo not shown) [Example 50] | 4.39 | – | 98% | 95% | 95% | –
CC(c1cc(Cl)ccc1Cl)N(C)C(=O)c1c(C(F)F)nn(C)c1Cl (stereo not shown) [Example 55] | 3.33 | – | 83% | 95% | 100% | –
Cn1nc(C(F)F)c(C(=O)NC(C)(C)c2cc(Cl)cc(Cl)c2)c1Cl [Example 112] | – | 3.73 | 95% | 80% | 95% | –
CC(c1cc(Cl)cc(Cl)c1)N(C)C(=O)c1c(C(F)F)nn(C)c1Cl (stereo not shown) [Example 116] | – | 3.65 | 75% | 95% | 100% | –
Cn1nc(C(F)F)c(C(=O)NC2(c3ccc(Cl)c(C(F)(F)F)c3)CC2)c1F [Example 125] | – | 3.27 | 100% | – | 95% | –
Cn1nc(C(F)F)c(C(=O)NCc2ccc(C(C)(C)C)cc2)c1F [Example 135] | – | 3.42 | – | – | – | 75%
Cn1nc(C(F)F)c(C(=O)NCc2ccc(C(C)(C)C)cc2)c1Cl [Example 136] | – | 3.58 | – | – | – | 70%
CCC(NC(=O)c1c(C(F)F)nn(C)c1Cl)c1ccc(Cl)cc1Cl (stereo not shown) [Example 191] | – | 3.79 | 100% | 95% | 100% | –
CCC(NC(=O)c1c(C(F)F)nn(C)c1F)c1ccc(Cl)cc1Cl (stereo not shown) [Example 192] | – | 3.61 | 100% | 95% | 100% | –

Second part, led by results:

logP [2, 6] | logP [2, 7] | Compound | Efficacy [1] | Efficacy [3] | Efficacy [4] | Efficacy [5]
3.33 | – | Cn1nc(C(F)F)c(C(=O)NC(c2ccccc2Cl)C(F)(F)F)c1Cl (racemic) [Example 19] | 84% | 90% | – | –
2.92 | – | CC(NC(=O)c1c(C(F)F)nn(C)c1Cl)c1ccccc1Cl (racemic) [Example 20] | 94% | 95% | 95% | –
– | 3.46 | CC(NC(=O)c1c(C(F)F)nn(C)c1F)c1ccc(-c2ccccc2)cc1 (racemic) [Example 169] | 89% | 94% | 100% | –
3.63 | – | CCc1ccccc1CN(C(=O)c1c(C(F)F)nn(C)c1F)C1CCC1 [Example 12] | 95% | 90% | 100% | –
3.13 | – | CCc1ccccc1CN(CC)C(=O)c1c(C(F)F)nn(C)c1F [Example 13] | 90% | 95% | 95% | –
2.81 | – | CCc1ccccc1CN(C)C(=O)c1c(C(F)F)nn(C)c1F [Example 15] | 83% | 95% | 95% | –
3.10 | – | C#CCN(Cc1ccccc1CC)C(=O)c1c(C(F)F)nn(C)c1F [Example 17] | 94% | 80% | 100% | –
2.92 | – | Cn1nc(C(F)F)c(C(=O)NC(C)(C)c2ccccc2Cl)c1F [Example 26] | 88% | 94% | – | –
4.39 | – | CC(NC(=O)c1c(C(F)F)nn(C)c1F)c1ccc(Cl)cc1Cl (stereo not shown) [Example 36] | 93% | 94% | 100% | –
4.39 | – | CC(NC(=O)c1c(C(F)F)nn(C)c1F)c1cc(Cl)ccc1Cl (stereo not shown) [Example 53] | 95% | 94% | 95% | –
2.78 | – | Cn1nc(C(F)F)c(C(=O)NCc2ccccc2C2CC2)c1F [Example 65] | 85% | 90% | 94% | –
3.90 | – | CC(C)c1ccccc1CN(C(=O)c1c(C(F)F)nn(C)c1F)C1CCC1 [Example 70] | 100% | 90% | 100% | –
3.66 | – | C=CCN(Cc1ccccc1C(C)C)C(=O)c1c(C(F)F)nn(C)c1F [Example 71] | 91% | 95% | 95% | –
3.37 | – | C#CCN(Cc1ccccc1C(C)C)C(=O)c1c(C(F)F)nn(C)c1F [Example 73] | 98% | 95% | 100% | –
4.63 | – | CC(C)c1ccccc1CN(C(=S)c1c(C(F)F)nn(C)c1F)C1CCC1 [Example 75] | 100% | – | 100% | –
3.49 | – | CC(C)c1ccccc1CN(CC(F)F)C(=O)c1c(C(F)F)nn(C)c1F [Example 78] | 93% | 100% | 100% | –
3.11 | – | CC(NC(=O)c1c(C(F)F)nn(C)c1Cl)c1ccccc1C(F)(F)F (stereo not shown) [Example 82] | 94% | 100% | 95% | –
2.96 | – | CC(NC(=O)c1c(C(F)F)nn(C)c1F)c1ccccc1C(F)(F)F (stereo not shown) [Example 84] | 90% | 100% | 100% | –
3.22 | – | CCN(Cc1c(Cl)cccc1C(F)(F)F)C(=O)c1c(C(F)F)nn(C)c1F [Example 91] | 95% | 100% | 95% | –
3.78 | – | CN(Cc1ccccc1[Si](C)(C)C)C(=O)c1c(C(F)F)nn(C)c1F [Example 103] | 91% | 90% | 70% | –
– | 3.65 | Cn1nc(C(F)F)c(C(=O)NC2(c3cccc(C(F)(F)F)c3)CCCC2)c1F [Example 108] | 85% | – | 94% | –
